Test results as given in article PMC9145846, “Polycyclic Phenol Derivatives from the Leaves of Spermacoce latifolia and Their Antibacterial and α-Glucosidase Inhibitory Activity” (Molecules, 2022).
pIC50: −log10 of the molar value. ≈ marks a conversion by molar mass, not a printed value. Where a name gives a salt, the structure may show the parent alone. Read-outs that look alike come from different tables or passages of the source.

Columns and labels:
[1] = test system: Escherichia coli (CMCC44102); assay: Antibacterial assay (resazurin, 96-well doubling dilution), EC; format: cell-based
Method: (§1) The antibacterial assay was monitored in 96-well plates by using a method as described previously. Briefly, 100 μL indicator solution (resazurin in sterile water, 100 μg/mL) was first placed into each of the sterility control wells (11th column) on the 96-well plates, and the indicator solution (about 7.5 mL, 100 μg/mL) was mixed with test bacteria (5 mL, 10^6 cfu/mL, OD600 = 0.07) followed by transferring (100 μL, each) to growth control wells (12th column) and all test wells (1–10th column). Then, each of 100 μL of test compounds (1 mg/mL) in beef extract peptone medium, along with the positive control solutions (prepared by adding kanamycin sulfate and vancomycin instead of the samples) and the negative control solution (3% DMSO of beef extract peptone medium), were applied to the wells in the 1st column of the plates. Once all samples and controls were properly applied to the 1st column of wells on the plate, half of the homogenized content (100 μL solution) was then parallel-transferred from the 1st column wells to the 2nd column wells, and each subsequent well was treated similarly (doubling dilution) up to the 10th column, followed by discarding the last 100 μL aliquot. Finally, the plates were incubated at 37 °C for 5–6 h until the color of growth control change to pink. The lowest concentration for each test compound at which […] was recorded as the MIC value of the test compound. In the bioassay, Gram-(+) bacterial strains of Staphyloccocus aureus (CMCC26003), methicillin-resistant Staphylococcus aureus (MRSA), Bacillus cereus (CMCC63302), Bacillus subtilis (CMCC63501), and Gram-(−) bacterial strain of Escherichia coli (CMCC44102) were used for the test, and they were all purchased from the Guangdong Institute of Microbiology (Guangzhou, China).

[2] = test system: Staphyloccocus aureus (CMCC26003); assay: Antibacterial assay (resazurin, 96-well doubling dilution), SA; format: cell-based; details: for MIC: read-out: MIC, SA
Method: as §1

α-glucosidase = α-glucosidase (Saccharomyces cerevisiae, UniProt P53341); assay: α-Glucosidase inhibition assay (PNPG substrate); details: read-out: α-Glucosidase inhibitory activity IC50; mean ± SD (n = 3); pH 6.8, PNPG, 37 °C, 15 min
Method: The a-glucosidase inhibitory activity of the ten isolated compounds was determined in 96-well microtiter plates following the method as described previously [15, 42]. In brief, α-glucosidase (20 μL, 0.5 U/mL) and various concentrations (500, 250, 125, 62.5, 31.2, 15.6, 7.8, 3.9 µg/mL) of tested compounds (120 μL) in 67 mM phosphate buffer (pH 6.8) were mixed in 96-well microtiter plates at room temperature for 10 min. Reactions were initiated by addition of 20 μL of 5.0 mM p-nitrophenyl-α-d-glucopyranoside (PNPG). The reaction mixture was incubated for 15 min at 37 °C in a final volume of 160 μL. Then, 0.2 M Na2CO3 (80 μL) was added to the incubation solution to stop the reaction and the absorbance was determined at 405 nm (for p-nitrophenol). The negative blank was set by adding phosphate buffer instead of test compounds via the same experimental procedure. […] The blank was set by adding phosphate buffer instead of the α-glucosidase using the same method. Inhibition rate (%) = [(ODnegative control − ODblank) − (ODtest − ODtest blank)]/(ODnegative blank − ODblank) × 100%. IC50 values were calculated and expressed as means ± standard deviations (SD) and SPSS 23.0 software was used for the analysis of variances.

[3] = test system: Bacillus cereus (CMCC63302); assay: Antibacterial assay (resazurin, 96-well doubling dilution), BC; format: cell-based
Method: as §1

[4] = test system: methicillin-resistant Staphylococcus aureus (MRSA); assay: Antibacterial assay (resazurin, 96-well doubling dilution), MRSA; format: cell-based; details: for MIC: MRSA, read-out: MIC, MRSA
Method: as §1

[5] = test system: Bacillus subtilis (CMCC63501); assay: Antibacterial assay (resazurin, 96-well doubling dilution), BS; format: cell-based
Method: as §1

[6] = 37 °C, 5–6 h, resazurin colour change
[7] = Staphyloccocus aureus, 37 °C, 5–6 h, resazurin colour change
[8] = methicillin-resistant Staphylococcus aureus, 37 °C, 5–6 h, resazurin colour change
[9] = CMCC44102, 37 °C, 5–6 h, resazurin colour change, read-out: MIC, EC
[10] = CMCC63302, 37 °C, 5–6 h, resazurin colour change, read-out: MIC, BC
[11] = CMCC63501, 37 °C, 5–6 h, resazurin colour change, read-out: MIC, BS

Chain of α-glucosidase (P53341 whole entry): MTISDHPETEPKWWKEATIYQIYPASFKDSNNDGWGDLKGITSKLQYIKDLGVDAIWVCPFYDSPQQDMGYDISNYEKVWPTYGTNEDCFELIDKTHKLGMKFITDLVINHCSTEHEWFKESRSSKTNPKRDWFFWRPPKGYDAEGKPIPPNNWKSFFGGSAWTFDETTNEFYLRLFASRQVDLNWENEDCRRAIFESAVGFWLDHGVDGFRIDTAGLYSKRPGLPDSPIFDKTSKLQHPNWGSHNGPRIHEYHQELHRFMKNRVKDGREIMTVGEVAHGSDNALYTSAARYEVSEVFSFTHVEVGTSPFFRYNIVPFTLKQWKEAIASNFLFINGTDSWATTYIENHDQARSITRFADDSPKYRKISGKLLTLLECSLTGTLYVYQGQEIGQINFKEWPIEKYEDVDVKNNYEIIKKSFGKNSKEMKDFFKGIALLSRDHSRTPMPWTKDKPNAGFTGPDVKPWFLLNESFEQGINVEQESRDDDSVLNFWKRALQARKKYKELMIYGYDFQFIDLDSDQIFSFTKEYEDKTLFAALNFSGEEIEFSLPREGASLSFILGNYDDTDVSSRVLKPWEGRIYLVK

Row | Molecule | MIC, MRSA [4, 8] | MIC [1, 9] [µg/mL] | MIC [2, 7] [µg/mL] | MIC [3, 10] [µg/mL] | MIC [4, 8] [µg/mL] | MIC [5, 11] [µg/mL] | further results
1 | 6,7,8,4′-tetramethoxyflavone [Compound 10] | >100 µg/mL |  |  |  |  |  | MIC, EC [1, 6]: >100 µg/mL; MIC, SA [2, 7]: 62.5 µg/mL; pIC50 (α-glucosidase): < 3.00; MIC, BC [3, 6]: 62.5 µg/mL; MIC, BS [5, 6]: 15.6 µg/mL
2 | CC(=O)c1cc2c(O)c3oc(=O)ccc3cc2o1 [Compound 1, 2-acetyl-4-hydroxy-6H-furo [2,3-g]chromen-6-one] | inactive | > 100 | 62.5 (≈ 256 µM) | 31.2 (≈ 128 µM) | > 100 | 31.2 (≈ 128 µM) | 
3 | CC(O)(CO)c1cc2c(O)c3oc(=O)ccc3cc2o1 (stereo not drawn) [Compound 2, 2-(1′,2′-dihydroxypropan-2′-yl)-4-hydroxy-6H-furo [2,3-g][1] benzopyran-6-one] | inactive | > 100 | 62.5 (≈ 226 µM) | 62.5 (≈ 226 µM) | > 100 | 62.5 (≈ 226 µM) | 
4 | COc1c(O)cc2oc3cc4c(c(O)c3c(=O)c2c1CC=C(C)C)C=CC(C)(C)O4 [Compound 4, 5,9-dihydroxy-8-methoxy-2,2-dimethyl-7-(3-methylbut-2-enyl)-2H,6H-pyrano [3,2-b]xanthen-6-one] |  | > 100 | 1.95 (≈ 4.77 µM) | 1.95 (≈ 4.77 µM) | 1.95 (≈ 4.77 µM) | 1.95 (≈ 4.77 µM) | 
5 | O=c1ccc2cc(O)c(O)cc2o1 [Compound 5, esculetin] | inactive | > 100 | 31.2 (≈ 175 µM) | 31.2 (≈ 175 µM) | > 100 | 7.81 (≈ 43.8 µM) | 
6 | COc1cc2oc(=O)ccc2cc1O [Compound 6, isoscopoletin] |  | > 100 | > 100 | > 100 | > 100 | > 100 | 
7 | COc1cc2ccc(=O)oc2c(O)c1O [Compound 7, 7,8-dihydroxy-6-methoxycoumarin] |  | > 100 | > 100 | > 100 | > 100 | > 100 | 
8 | COc1c(O)cc2c(=O)oc3c(OC)c(O)ccc3c2c1O [Compound 8, 3,8,10-trihydroxy-4,9-dimethoxy-6H-benzo[c]chromen-6-one] | inactive | > 100 | 15.6 (≈ 51.3 µM) | 31.2 (≈ 103 µM) | > 100 | 15.6 (≈ 51.3 µM) | 
9 | O=c1cc(-c2ccc(O)cc2)oc2cc(O)c(O)cc12 [Compound 9, 6,7,4′-trihydroxyflavone] |  | > 100 | > 100 | > 100 | > 100 | > 100 | 
10 | NC[C@H]1O[C@H](O[C@H]2[C@H](O)[C@@H](O[C@H]3O[C@H](CO)[C@@H](O)[C@H](N)[C@H]3O)[C@H](N)C[C@@H]2N)[C@H](O)[C@@H](O)[C@@H]1O [K, Kanamycin sulfate, reference compound] |  | 1.95 | 1.95 | 3.9 | > 100 | 1.95 | 
11 | CN[C@H](CC(C)C)C(=O)N[C@H]1C(=O)N[C@@H](CC(N)=O)C(=O)N[C@H]2C(=O)N[C@H]3C(=O)N[C@H](C(=O)N[C@H](C(=O)O)c4cc(O)cc(O)c4-c4cc3ccc4O)[C@H](O)c3ccc(c(Cl)c3)Oc3cc2cc(c3O[C@@H]2O[C@H](CO)[C@@H](O)[C@H](O)[C@H]2O[C@H]2C[C@](C)(N)[C@H](O)[C@H](C)O2)Oc2ccc(cc2Cl)[C@H]1O [V, Vancomycin, reference compound] |  |  |  |  |  |  | MIC ([1]; CMCC44102, read-out: MIC, EC): > 100 µg/mL; MIC [2]: 1.95 µg/mL (≈ 1.35 µM); MIC ([3]; CMCC63302, read-out: MIC, BC): 1.95 µg/mL (≈ 1.35 µM); MIC ([4]; Staphylococcus aureus): 3.9 µg/mL (≈ 2.69 µM); MIC ([5]; CMCC63501, read-out: MIC, BS): 1.95 µg/mL (≈ 1.35 µM)
